Assay results published in ChEMBL document CHEMBL1146051, “Novel inhibitors of hepatitis C NS3-NS4A serine protease derived from 2-aza-bicyclo[2.2.1]heptane-3-carboxylic acid” (Bioorg Med Chem Lett, 2006).

Columns and labels:
[1] = target: NS3 (Hepatitis C virus, UniProt A3EZJ3); experiment: Inhibitory activity against HCV NS3 protease; design: species or system Hepacivirus hominis
[2] = tested on: Hepatitis C virus; experiment: Inhibition of HCV replication in a cellular replicon assay; assay type: functional, organism-based, Hepacivirus hominis
[3] = Selectivity for HNE over HCV NS3 protease
[4] = target: T1, Neutrophil elastase (Homo sapiens, UniProt P08246); experiment: Inhibitory activity against HNE; settings: read-out: Ki app
T1 sequence (P08246 whole entry): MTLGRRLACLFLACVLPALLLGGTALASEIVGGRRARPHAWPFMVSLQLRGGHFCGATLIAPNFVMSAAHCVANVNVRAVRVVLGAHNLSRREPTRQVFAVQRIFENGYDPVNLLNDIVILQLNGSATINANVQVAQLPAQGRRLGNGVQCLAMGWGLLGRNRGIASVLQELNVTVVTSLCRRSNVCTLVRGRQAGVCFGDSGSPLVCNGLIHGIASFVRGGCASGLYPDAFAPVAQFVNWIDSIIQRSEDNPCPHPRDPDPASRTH

NS3, sequence (A3EZJ3 whole entry): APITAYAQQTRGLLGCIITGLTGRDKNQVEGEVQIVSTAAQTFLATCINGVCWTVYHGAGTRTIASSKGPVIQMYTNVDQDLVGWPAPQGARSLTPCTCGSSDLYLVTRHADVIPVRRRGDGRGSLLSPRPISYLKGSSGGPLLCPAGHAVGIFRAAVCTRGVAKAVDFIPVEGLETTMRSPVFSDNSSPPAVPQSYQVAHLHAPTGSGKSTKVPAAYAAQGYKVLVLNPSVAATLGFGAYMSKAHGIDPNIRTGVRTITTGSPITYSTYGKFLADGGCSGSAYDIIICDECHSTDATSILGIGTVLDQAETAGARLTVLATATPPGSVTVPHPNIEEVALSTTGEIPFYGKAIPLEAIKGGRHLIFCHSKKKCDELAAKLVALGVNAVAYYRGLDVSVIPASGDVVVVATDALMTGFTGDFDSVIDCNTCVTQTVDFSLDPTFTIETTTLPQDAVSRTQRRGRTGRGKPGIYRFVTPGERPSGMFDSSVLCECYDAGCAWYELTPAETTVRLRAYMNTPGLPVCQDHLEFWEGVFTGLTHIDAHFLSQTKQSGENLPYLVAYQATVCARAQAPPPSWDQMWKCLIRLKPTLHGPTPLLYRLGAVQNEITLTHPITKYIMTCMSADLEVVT

Structure (SMILES) | Ki ([1]; read-out: Ki app) | further results
CCCC(NC(=O)[C@@H]1C2CC([C@H]3C[C@@H]23)N1C(=O)[C@@H](NC(=O)C(C)(C)C)C1CCCCC1)C(=O)C(=O)NCC(=O)N[C@H](C(=O)N(C)C)c1ccccc1 (some centres undefined) | 90 nM | 
CCCCC(NC(=O)[C@@H]1C2CCC(C2)N1C(=O)[C@@H](NC(=O)OC(C)(C)C)C1CCCCC1)C(=O)C(=O)NCC(=O)N[C@H](C(=O)N(C)C)c1ccccc1 (some centres undefined) |  | EC50 [2]: 600 nM
CN(C)C(=O)[C@@H](NC(=O)CNC(=O)C(=O)C(CC1CC1)NC(=O)[C@@H]1C2CCC(C2)N1C(=O)[C@@H](NC(=O)OC(C)(C)C)C(C)(C)C)c1ccccc1 (some centres undefined) | 19 nM | 
CCCC(NC(=O)[C@@H]1C2CCC(C2)N1C(=O)[C@@H](NC(=O)OC(C)(C)C)C1CCCCC1)C(=O)C(=O)NCC(=O)N[C@H](C(=O)N(C)C)c1ccccc1 (some centres undefined) | 90 nM | 
CN(C)C(=O)[C@@H](NC(=O)CNC(=O)C(=O)C(CC1CC1)NC(=O)[C@@H]1C2CCC(C2)N1C(=O)[C@@H](NC(=O)NC(C)(C)C)C(C)(C)C)c1ccccc1 (some centres undefined) | 10 nM | Ratio Ki(app) [3]: 35; Ki [4]: 340 nM
CCCCC(NC(=O)[C@@H]1C2CCC(C2)N1C(=O)[C@@H](NC(=O)OC(C)(C)C)C(C)(C)C)C(=O)C(=O)NCC(=O)N[C@H](C(=O)N(C)C)c1ccccc1 (some centres undefined) | 81 nM | 
CN(C)C(=O)[C@@H](NC(=O)CNC(=O)C(=O)C(CC1CCC1)NC(=O)[C@@H]1C2CCC(C2)N1C(=O)[C@@H](NC(=O)OC(C)(C)C)C1CCCCC1)c1ccccc1 (some centres undefined) | 51 nM | 
CN(C)C(=O)[C@@H](NC(=O)CNC(=O)C(=O)C(CC1CC1)NC(=O)[C@@H]1C2CCC(C2)N1C(=O)[C@@H](NC(=O)OC(C)(C)C)C1CCCCC1)c1ccccc1 (some centres undefined) | 20 nM | 
CN(C)C(=O)[C@@H](NC(=O)CNC(=O)C(=O)C(CC1CCC1)NC(=O)[C@@H]1C2CCC(C2)N1C(=O)[C@@H](NC(=O)NC(C)(C)C)C1CCCCC1)c1ccccc1 (some centres undefined) | 21 nM | 
CN(C)C(=O)[C@@H](NC(=O)CNC(=O)C(=O)C(CC1CCC1)NC(=O)[C@@H]1C2CCC(C2)N1C(=O)[C@@H](NC(=O)NC(C)(C)C)C(C)(C)C)c1ccccc1 (some centres undefined) | 13 nM | EC50 [2]: 2000 nM; Ki [4]: 5300 nM
CCCCC(NC(=O)[C@@H]1C2CC([C@H]3C[C@@H]23)N1C(=O)[C@@H](NC(=O)C(C)(C)C)C1CCCCC1)C(=O)C(=O)NCC(=O)N[C@H](C(=O)N(C)C)c1ccccc1 (some centres undefined) | 27 nM | 
CCCC(NC(=O)[C@@H]1C2CCC(C2)N1C(=O)[C@@H](NC(=O)OC(C)(C)C)C(C)(C)C)C(=O)C(=O)NCC(=O)OCc1ccccc1 (some centres undefined) | 1500 nM | 
CC(C)CC(NC(=O)[C@@H]1C2CCC(C2)N1C(=O)[C@@H](NC(=O)OC(C)(C)C)C(C)(C)C)C(=O)C(=O)NCC(=O)N[C@H](C(=O)N(C)C)c1ccccc1 (some centres undefined) | 40 nM | 
CC(C)CC(NC(=O)[C@@H]1C2CCC(C2)N1C(=O)[C@@H](NC(=O)OC(C)(C)C)C1CCCCC1)C(=O)C(=O)NCC(=O)N[C@H](C(=O)N(C)C)c1ccccc1 (some centres undefined) |  | Ki ([1]; read-out: Ki): 53 nM
CCCC(NC(=O)[C@@H]1C2CCC(C2)N1C(=O)[C@@H](NC(=O)OC(C)(C)C)C(C)(C)C)C(=O)C(=O)NCC(=O)O (some centres undefined) | 3800 nM | 
CN(C)C(=O)[C@@H](NC(=O)CNC(=O)C(=O)C(CC1CC1)NC(=O)[C@@H]1C2CCC(C2)N1C(=O)[C@@H](NC(=O)NC(C)(C)C)C1CCCCC1)c1ccccc1 (some centres undefined) |  | Ki ([1]; read-out: Ki): 19 nM
CCCC(NC(=O)[C@@H]1C2CCC(C2)N1C(=O)[C@@H](NC(=O)OC(C)(C)C)C(C)(C)C)C(=O)C(N)=O (some centres undefined) | 6900 nM | 
CCCC(NC(=O)[C@@H]1C2CCC(C2)N1C(=O)[C@@H](NC(=O)OC(C)(C)C)C(C)(C)C)C(=O)C(=O)NCC(=O)N[C@H](C(=O)N(C)C)c1ccccc1 (some centres undefined) | 110 nM | 
C=CCNC(=O)C(=O)C(CCC)NC(=O)[C@@H]1C2CCC(C2)N1C(=O)[C@@H](NC(=O)OC(C)(C)C)C(C)(C)C (some centres undefined) | 5500 nM | 
CN(C)C(=O)[C@@H](NC(=O)CNC(=O)C(=O)C(CC1CCC1)NC(=O)[C@@H]1C2CCC(C2)N1C(=O)[C@@H](NC(=O)OC(C)(C)C)C(C)(C)C)c1ccccc1 (some centres undefined) | 27 nM | 
